Patent publication US20240254121A1, “ALKYLAMIDE SUBSTITUTED, ANNULATED IMIDAZOLES AND USE THEREOF AS INSECTICIDES” (Bayer Aktiengesellschaft, priority 2021, published 2024)

Tests used:
Type in all cases: in vivo
[1] = test system: cotton aphid (Aphis gossypii); experiment: Aphis gossypii oral test; conditions: 120 h, after 5 days
Method: Aphis gossypii—Oral Test • Solvent: 100 Parts by Weight Acetone
(§1) To produce a suitable preparation of active compound, 1 part by weight of active compound is mixed with the stated amount of solvent, and the concentrate is diluted with water to the desired concentration.
50 μL compound solution is filled in microtiter plates and 150 μL IPL41 insect medium (33%+15% sugar) is added to obtain a total volume of 200 μL per well. Afterwards the plates are sealed with parafilm through which a mixed population of the cotton aphid (Aphis gossypii) can suck on the compound preparation.
(§2) After 5 days mortality in % is determined. 100% means all aphids have been killed and 0% means none of the aphids have been killed.

[2] = test system: larvae of the banded cucumber beetle (Diabrotica balteata); experiment: Diabrotica balteata spray test; conditions: 168 h, 100 g/ha (=32 μg/well), wheat seeds, after 7 days, read-out: efficacy (seedling growth)
Method: Diabrotica Balteata—Spray Test
• Solvent: 78.0 Parts by Weight of Acetone • 1.5 parts by weight of dimethylformamide • Emulsifier: Alkylarylpolyglycol Ether
(§3) To produce a suitable preparation of active compound, 1 part by weight of active compound is mixed with the stated amount of solvent, and the concentrate is diluted with water, containing an emulsifier concentration of 1000 ppm, to the desired concentration. Further test concentrations are prepared by dilution with emulsifier containing water.
Soaked wheat seeds (Triticum aestivum) are placed in a multiple well plate filled with agar and some water and are incubated for 1 day to germinate (5 seeds per well). The germinated wheat seeds are sprayed with a test solution containing the desired concentration of the active ingredient. Afterwards each unit is infected with 10-20 larvae of the banded cucumber beetle (Diabrotica balteata).
After 7 days efficacy in % is determined. 100% means all the seedlings have grown up like in the untreated, uninfected control; 0% means none of the seedlings have grown.

[3] = test system: green peach aphid (Myzus persicae); experiment: Myzus persicae oral test; conditions: 120 h, after 5 days
Method: Myzus persicae—Oral Test • Solvent: 100 parts by weight acetone
as §1
50 μL compound solution is filled in microtiter plates and 150 μL IPL41 insect medium (33%+15% sugar) is added to obtain a total volume of 200 μL per well. Afterwards the plates are sealed with parafilm through which a mixed population of the green peach aphid (Myzus persicae) can suck on the compound preparation.
as §2

[4] = test system: larvae of the southern green stink bug (Nezara viridula); experiment: Nezara viridula spray test; conditions: 96 h, barley plants, after 4 days
Method: Nezara viridula—Spray Test • Solvent: 78.0 parts by weight of acetone • 1.5 parts by weight of dimethylformamide • Emulsifier: alkylarylpolyglycol ether
as §3
Barley plants (Hordeum vulgare) are sprayed with a test solution containing the desired concentration of the active ingredient and are infested with larvae of the southern green stink bug (Nezara viridula).
After 4 days mortality in % is determined. 100% means all the stink bugs have been killed; 0% means none of the stink bugs have been killed.

[5] = test system: brown planthopper (Nilaparvata lugens); experiment: Nilaparvata lugens spray test; conditions: 96 h, rice plants, after 4 days
Method: Nilaparvata lugens—Spray Test • Solvent: 78.0 parts by weight of acetone • 1.5 parts by weight of dimethylformamide • Emulsifier: alkylarylpolyglycol ether
(§4) To produce a suitable preparation of active compound, 1 part by weight of active compound is mixed with the stated amount of solvents and is diluted with water, containing an emulsifier concentration of 1000 ppm, to the desired concentration. Further test concentrations are prepared by dilution with emulsifier containing water.
Rice plants (Oryza sativa) are sprayed with a preparation of the active ingredient of the desired concentration and the plants are infested with the brown planthopper (Nilaparvata lugens).
After 4 days mortality in % is determined. 100% means all planthoppers have been killed and 0% means none of the planthoppers have been killed.

[6] = test system: fall armyworm larvae (Spodoptera frugiperda); experiment: Spodoptera frugiperda spray test; conditions: 168 h, maize leaf sections, after 7 days
Method: Spodoptera frugiperda—Spray Test • Solvent: 78.0 parts by weight acetone • 1.5 parts by weight dimethylformamide • Emulsifier: alkylarylpolyglycol ether
as §4
Maize (Zea mays) leaf sections are sprayed with a preparation of the active ingredient of the desired concentration. Once dry, the leaf sections are infested with fall armyworm larvae (Spodoptera frugiperda).
After 7 days mortality in % is determined. 100% means all caterpillars have been killed and 0% means none of the caterpillars have been killed.

[7] = test system: adult mosquitoes Aedes aegypti strain MONHEIM; experiment: Aedes aegypti test (AEDSAE surface treatment & contact assay); conditions: 24 hours after contact, read-out: efficacy (mortality); for mortality at 4 mg/m2: surface concentration 4 mg/m^2, 30 minutes exposure; for mortality at 20 mg/m2: surface concentration 20 mg/m^2, 30 minutes exposure
Method: Aedes aegypti Test (AEDSAE Surface Treatment & Contact Assay) • Solvent: Aceton+2000 ppm rapeseed oil methyl ester (RME)
In order to produce a sufficient, active ingredient containing solution it is necessary to solve the test compound in the solvent-mix (acetone at 2 mg/ml/RME 2000 ppm). This solution is pipetted onto a glazed tile and after evaporation of the acetone, adult mosquitoes of the species Aedes aegypti strain MONHEIM are placed onto the dried surface. The exposure time is 30 minutes. Mortality in percent (%) is determined 24 hours after contact of the insects to the treated surface. 100% mortality means that all tested insects are dead, whereas 0% means that no insect died.

[8] = test system: cattle tick larvae (Rhipicephalus microplus); experiment: Rhipicephalus (Boophilus) microplus in-vitro contact test, larval cattle tick (strain Parkhurst, resistant against synthetic pyrethroids); conditions: 1 μg/cm^2 (=100 g/ha), after 48 hours, read-out: efficacy (larvae dead or moribund)
Method: Rhipicephalus (Boophilus) Microplus—In-Vitro Contact Tests Larval Cattle Tick (Strain Parkhurst, Resistant Against Synthetic Pyrethroids)
(§5) 9 mg compound is solved in 1 mL acetone and diluted with acetone to the desired concentration. 250 μL of the test solution is filled in 25 mL glass test tubes and homogeneously distributed on the inner walls by rotation and tilting on a shaking device (2 h at 30 rpm). With a compound concentration of 900 ppm, an inner surface of 44.7 cm^2 and a homogeneous distribution, a dose of 5 μg/cm^2 is achieved.
After the solvent has evaporated, each test tube is filled with 20-50 cattle tick larvae (Rhipicephalus microplus), closed with a perforated lid and incubated in a horizontal position at 85% relative humidity and 27° C. in an incubator. After 48 hours efficacy is determined. The larvae are patted on the ground of the tubes and negative geotactic behavior is recorded.
An efficacy of 100% means all larvae are dead or moribund; 0% means no larvae are dead or moribund.

[9] = test system: green peach aphid (Myzus persicae); experiment: Myzus persicae spray test; conditions: foliar, 120 h, Chinese cabbage leaf disks, after 5 days
Method: Myzus persicae—Spray Test • Solvent: 78.0 parts by weight acetone • 1.5 parts by weight dimethylformamide • Emulsifier: alkylarylpolyglycol ether
as §4
Chinese cabbage (Brassica pekinensis) leaf disks infected with all instars of the green peach aphid (Myzus persicae), are sprayed with a preparation of the active ingredient of the desired concentration.
as §2

[10] = test system: adult brown dog ticks (Rhipicephalus sanguineus); experiment: Rhipicephalus sanguineus in-vitro contact test with adult brown dog ticks; conditions: 1 μg/cm^2 (=100 g/ha), after 48 hours
Method: Rhipicephalus sanguineus—In-Vitro Contact Tests with Adult Brown Dog Ticks
as §5
After the solvent has evaporated, each test tube is filled with 5-10 adult brown dog ticks (Rhipicephalus sanguineus), closed with a perforated lid and incubated in a lying position at room temperature and relative humidity. After 48 hours efficacy is determined. The ticks are patted on the ground of the tubes and are incubated on a heating plate at 45-50° C. for at most 5 minutes. Immotile or uncoordinated moving ticks, which are not able to escape the heat by climbing upwards, are marked as dead or moribund.
An efficacy of 100% means all ticks are dead or moribund; 0% means no ticks are dead or moribund.

[11] = test system: adult flies Musca domestica strain WHO-N; experiment: Musca domestica test (MUSCDO surface treatment & contact assay); conditions: 24 hours after contact, read-out: efficacy (mortality); for mortality at 20 mg/m2: surface concentration 20 mg/m^2, 30 minutes exposure; for mortality at 4 mg/m2: surface concentration 4 mg/m^2, 30 minutes exposure
Method: Musca domestica Test (MUSCDO Surface Treatment & Contact Assay) • Solvent: Aceton+2000 ppm rapeseed oil methyl ester (RME)
In order to produce a sufficient, active ingredient containing solution it is necessary to solve the test compound in the solvent-mix (acetone at 2 mg/ml/RME 2000 ppm). This solution is pipetted onto a glazed tile and after evaporation of the acetone, adult flies of the species Musca domestica strain WHO-N are placed onto the dried surface. The exposure time is 30 minutes. Mortality in percent (%) is determined 24 hours after contact of the insects to the treated surface. 100% mortality means that all tested insects are dead, whereas 0% means that no insect died.

[12] = test system: adult mosquitoes Culex quinquefasciatus strain P00; experiment: Culex quinquefasciatus test (CULXFA surface treatment & contact assay); conditions: 24 hours after contact, read-out: efficacy (mortality); for mortality at 4 mg/m2: surface concentration 4 mg/m^2, 30 minutes exposure; for mortality at 20 mg/m2: surface concentration 20 mg/m^2, 30 minutes exposure
Method: Culex quinquefasciatus Test (CULXFA Surface Treatment & Contact Assay) • Solvent: Aceton+2000 ppm rapeseed oil methyl ester (RME)
In order to produce a sufficient, active ingredient containing solution it is necessary to solve the test compound in the solvent-mix (acetone at 2 mg/ml/RME 2,000 ppm). This solution is pipetted onto a glazed tile and after evaporation of the acetone, adult mosquitoes of the species Culex quinquefasciatus strain P00 are placed onto the dried surface. The exposure time is 30 minutes. Mortality in percent (%) is determined 24 hours after contact of the insects to the treated surface. 100% mortality means that all tested insects are dead, whereas 0% means that no insect died.

SMILES	mortality at 100 ppm [1] [%]	pest or weed control at 32 µg/disc, 100 g/ha [2] [%]	mortality at 20 ppm [3] [%]	mortality at 100 g/ha [6] [%]	mortality at 4 mg/m2 [7] [%]	pest or weed control at 1 µg/cm2, 100 g/ha [8] [%]	mortality at 20 mg/m2 [7] [%]	mortality at 20 mg/m2 [11] [%]	other results
C[C@H](NC(=O)c1cc(OC(F)(F)F)cc(S(C)(=O)=O)c1)c1nc2cccnc2n1-c1ccc(C#N)cn1 [Example I-4]	100	100	100	100	80 to 100				mortality at 500 g/ha [4]: 100%; mortality at 500 g/ha [5]: 90%
C[C@H](NC(=O)c1cc(C#N)cc(C2(C#N)CC2)c1)c1nc2cccnc2n1-c1ccc(C#N)cn1 [Example I-6]				100	80 to 100	90			mortality at 100 g/ha [9]: 90%
CC(NC(=O)c1cc(C(F)(F)F)cc(C(F)(F)F)c1)c1nc2cccnc2n1-c1ccc(Cl)cn1 (stereo not shown) [Example I-8]		100		100		100	80 to 100	80 to 100	efficacy (ticks dead or moribund) [10]: 80%
CC(NC(=O)c1cc(OC(F)(F)F)cc(OC(F)(F)F)c1)c1nc2cccnc2n1-c1ccc(Cl)cn1 (stereo not shown) [Example I-9]	100	100	100	100		80		80 to 100	mortality at 500 g/ha ([9]; 500 g/ha): 90%
CC(NC(=O)c1cc(Cl)cc(S(C)(=O)=O)c1)c1nc2cccnc2n1-c1ccc(Cl)cn1 (stereo not shown) [Example I-10]	100		100	100	80 to 100		80 to 100		mortality at 500 g/ha [4]: 100%; mortality at 4 mg/m2 [12]: 80 to 100%
CC(NC(=O)c1cc(OC(F)(F)F)cc(C2CC2)c1)c1nc2cccnc2n1-c1ccc(Cl)cn1 (stereo not shown) [Example I-13]						90			efficacy (ticks dead or moribund) [10]: 80%
C[C@H](NC(=O)c1cc(C(F)F)n(C)n1)c1nc2cccnc2n1-c1ccc(C#N)cn1 [Example I-17]									efficacy (ticks dead or moribund) [10]: 100%
COC(=O)c1ccc(-n2c(C(C)NC(=O)c3cc(OC(F)(F)F)cc(S(C)(=O)=O)c3)nc3cccnc32)nc1 (stereo not shown) [Example I-24]	100		100		80 to 100		80 to 100		mortality at 4 mg/m2 [12]: 80 to 100%; mortality at 20 mg/m2 [12]: 80 to 100%
CC(NC(=O)c1cc(C(F)(F)F)cc(C(F)(F)F)c1)c1nc2cccnc2n1-c1ccc(C(=O)N(C)C)cn1 (stereo not shown) [Example I-26, 6-(2-{1-[3,5-bis(trifluoromethyl)benzamido]ethyl}-3H-imidazo[4,5-b]pyridin-3-yl)-N,N-dimethylnicotinamide]							80 to 100		mortality at 100 g/ha [9]: 90%; mortality at 500 g/ha [5]: 100%
CC(NC(=O)c1cc(C(F)(F)F)cc(C(F)(F)F)c1)c1nc2cccnc2n1-c1ccc(C#N)cn1 (stereo not shown) [Example I-35]		100		100	80 to 100		80 to 100	80 to 100	mortality at 100 g/ha [9]: 100%; mortality at 20 mg/m2 [12]: 80 to 100%; mortality at 4 mg/m2 [11]: 80 to 100%
CC(NC(=O)c1cc(OC(F)F)cc(OC(F)F)c1)c1nc2cccnc2n1-c1ccc(C#N)cn1 (stereo not shown) [Example I-40]		100		100	80 to 100		80 to 100	80 to 100	mortality at 500 g/ha [5]: 90%; mortality at 4 mg/m2 [11]: 80 to 100%
